Test results as given in US10004701B2, “Methods and compositions for treating infection” (UNIVERSITY OF ROCHESTER, priority 2012, dated 2018).
Structures can show the parent of a compound that is named as a salt. Where two headings read alike, the source gives them in different places.

Legend:
Assay in all cases: AK assay 384-well format, Prestwick library screening
E. faecium = format: cell-based, Enterococcus faecium; conditions: 50 μM final drug concentration; for fold induction at 50 µM: Enterococcus faecium, 3 h
[1] = test system: S. aureus strain USA300-0114; format: cell-based, Staphylococcus aureus; conditions: 50 μM final drug concentration; for fold induction at 50 µM: Staphylococcus aureus, USA300, 3 h
K. pneumoniae = format: cell-based, Klebsiella pneumoniae; conditions: 50 μM final drug concentration; for fold induction at 50 µM: Klebsiella pneumoniae, 3 h
[2] = test system: A. baumannii strain 98-37-09; format: cell-based, Acinetobacter baumannii; conditions: 50 μM final drug concentration; for fold induction at 50 µM: Acinetobacter baumannii, 983709, 3 h
P. aeruginosa = format: cell-based, Pseudomonas aeruginosa; conditions: 50 μM final drug concentration; for fold induction at 50 µM: Pseudomonas aeruginosa, 3 h
E. cloacae = format: cell-based, Enterobacter cloacae; conditions: 50 μM final drug concentration; for fold induction at 50 µM: Enterobacter cloacae, 3 h
E. coli = format: cell-based, Escherichia coli; conditions: 50 μM final drug concentration; for fold induction at 50 µM: Escherichia coli, 3 h
[3] = planktonic, cutoff for positive 3-fold increase
[4] = planktonic E. faecium, 384-well, cutoff for positive-scoring molecules 3-fold increase, read-out: AK-based Prestwick Library Screening Results: E. faecium (increase in extracellular AK activity)
[5] = planktonic S. aureus, 384-well, cutoff for positive-scoring molecules 3-fold increase, read-out: AK-based Prestwick Library Screening Results: S. aureus (increase in extracellular AK activity)
[6] = planktonic K. pneumoniae, 384-well, cutoff for positive-scoring molecules 3-fold increase, read-out: AK-based Prestwick Library Screening Results: K. pneumoniae (increase in extracellular AK activity)
[7] = planktonic A. baumannii, 384-well, cutoff for positive-scoring molecules 3-fold increase, read-out: AK-based Prestwick Library Screening Results: A. baumannii (increase in extracellular AK activity)
[8] = planktonic P. aeruginosa, 384-well, cutoff for positive-scoring molecules 3-fold increase, read-out: AK-based Prestwick Library Screening Results: P. aeruginosa (increase in extracellular AK activity)
[9] = planktonic E. cloacae, 384-well, cutoff for positive-scoring molecules 3-fold increase, read-out: AK-based Prestwick Library Screening Results: E. cloacae (increase in extracellular AK activity)
[10] = planktonic E. coli, 384-well, cutoff for positive-scoring molecules 3-fold increase, read-out: AK-based Prestwick Library Screening Results: E. coli (increase in extracellular AK activity)

Compound `CNC1(C)C2CCC(C2)C1(C)C` (centres unmarked) [Mecamylamine hydrochloride] has a fold induction at 50 µM (E. faecium; planktonic E. faecium, positive cutoff 3-fold increase, read-out: AK-based Prestwick library screening result, E. faecium (fold increase in extracellular AK activity)) of 1.1, a fold induction at 50 µM ([1]; planktonic S. aureus, positive cutoff 3-fold increase, read-out: AK-based Prestwick library screening result, S. aureus (fold increase in extracellular AK activity)) of 1.4 and a fold induction at 50 µM (K. pneumoniae; planktonic K. pneumoniae, positive cutoff 3-fold increase, read-out: AK-based Prestwick library screening result, K. pneumoniae (fold increase in extracellular AK activity)) of 1. The fold induction at 50 µM ([2]; planktonic A. baumannii, positive cutoff 3-fold increase, read-out: AK-based Prestwick library screening result, A. baumannii (fold increase in extracellular AK activity)) was 1.2, the fold induction at 50 µM (P. aeruginosa; planktonic P. aeruginosa, positive cutoff 3-fold increase, read-out: AK-based Prestwick library screening result, P. aeruginosa (fold increase in extracellular AK activity)) was 1.1 and the fold induction at 50 µM (E. cloacae; planktonic E. cloacae, positive cutoff 3-fold increase, read-out: AK-based Prestwick library screening result, E. cloacae (fold increase in extracellular AK activity)) was 1.6. It also gave a fold induction at 50 µM (E. coli; planktonic E. coli, positive cutoff 3-fold increase, read-out: AK-based Prestwick library screening result, E. coli (fold increase in extracellular AK activity)) of 1.4.

`C=C1c2c(Cl)ccc(O)c2C(=O)C2=C(O)[C@]3(O)C(=O)C(C(N)=O)=C(O)[C@@H](N(C)C)[C@@H]3[C@@H](O)[C@H]12.O=C(O)c1cc(S(=O)(=O)O)ccc1O` [Meclocycline sulfosalicylate] was tested, and the “AK-based Prestwick Library Screening Results, E. faecium (fold increase in extracellular AK activity)” value (E. faecium; [3]) was 1.0, the “AK-based Prestwick Library Screening Results, S. aureus (fold increase in extracellular AK activity)” value [1, 3] was 4.3 and the “AK-based Prestwick Library Screening Results, K. pneumoniae (fold increase in extracellular AK activity)” value (K. pneumoniae; [3]) was 0.3. For the same compound, the “AK-based Prestwick Library Screening Results, A. baumannii (fold increase in extracellular AK activity)” value [2, 3] was 3.2, the “AK-based Prestwick Library Screening Results, P. aeruginosa (fold increase in extracellular AK activity)” value (P. aeruginosa; [3]) was 0.5 and the “AK-based Prestwick Library Screening Results, E. cloacae (fold increase in extracellular AK activity)” value (E. cloacae; [3]) was 2.1. For the same compound, the “AK-based Prestwick Library Screening Results, E. coli (fold increase in extracellular AK activity)” value (E. coli; [3]) was 0.8.

Work on `CN(C)CCOC(=O)COc1ccc(Cl)cc1` [Meclofenoxate hydrochloride] yielded a fold induction at 50 µM (E. faecium; planktonic, […], read-out: AK-based Prestwick Library Screening Results, E. faecium (fold increase in extracellular AK activity)) of 1, a fold induction at 50 µM ([1]; planktonic, […], read-out: AK-based Prestwick Library Screening Results, S. aureus (fold increase in extracellular AK activity)) of 1.2 and a fold induction at 50 µM (K. pneumoniae; planktonic, […], read-out: AK-based Prestwick Library Screening Results, K. pneumoniae (fold increase in extracellular AK activity)) of 1. It also gave a fold induction at 50 µM ([2]; planktonic, […], read-out: AK-based Prestwick Library Screening Results, A. baumannii (fold increase in extracellular AK activity)) of 1, a fold induction at 50 µM (P. aeruginosa; planktonic, […], read-out: AK-based Prestwick Library Screening Results, P. aeruginosa (fold increase in extracellular AK activity)) of 1.1 and a fold induction at 50 µM (E. cloacae; planktonic, […], read-out: AK-based Prestwick Library Screening Results, E. cloacae (fold increase in extracellular AK activity)) of 1.4. It also gave a fold induction at 50 µM (E. coli; planktonic, […], read-out: AK-based Prestwick Library Screening Results, E. coli (fold increase in extracellular AK activity)) of 1.2.

In the case of `Cc1cccc(CN2CCN(C(c3ccccc3)c3ccc(Cl)cc3)CC2)c1` (centres unmarked) [Meclozine dihydrochloride], the fold induction at 50 µM (E. faecium; planktonic, cutoff for positive 3-fold increase, read-out: AK-based Prestwick Library Screening Results, E. faecium (fold increase in extracellular AK activity)) is reported as 1.2, the fold induction at 50 µM ([1]; planktonic, cutoff for positive 3-fold increase, read-out: AK-based Prestwick Library Screening Results, S. aureus (fold increase in extracellular AK activity)) is reported as 2.1 and the fold induction at 50 µM (K. pneumoniae; planktonic, cutoff for positive 3-fold increase, read-out: AK-based Prestwick Library Screening Results, K. pneumoniae (fold increase in extracellular AK activity)) is reported as 0.9. It also gave a fold induction at 50 µM ([2]; planktonic, cutoff for positive 3-fold increase, read-out: AK-based Prestwick Library Screening Results, A. baumannii (fold increase in extracellular AK activity)) of 1.9, a fold induction at 50 µM (P. aeruginosa; planktonic, cutoff for positive 3-fold increase, read-out: AK-based Prestwick Library Screening Results, P. aeruginosa (fold increase in extracellular AK activity)) of 1.2 and a fold induction at 50 µM (E. cloacae; planktonic, cutoff for positive 3-fold increase, read-out: AK-based Prestwick Library Screening Results, E. cloacae (fold increase in extracellular AK activity)) of 1.4. The fold induction at 50 µM (E. coli; planktonic, cutoff for positive 3-fold increase, read-out: AK-based Prestwick Library Screening Results, E. coli (fold increase in extracellular AK activity)) was 1.2.

`CC(=O)[C@H]1CC[C@H]2[C@@H]3C[C@H](C)C4=CC(=O)CC[C@]4(C)[C@H]3[C@@H](O)C[C@]12C` [Medrysone] gave a fold induction at 50 µM (E. faecium; planktonic, cutoff for positive-scoring molecules 3-fold increase, read-out: AK-based Prestwick Library Screening Results, E. faecium (fold increase in extracellular AK activity)) of 1, a fold induction at 50 µM ([1]; planktonic, cutoff for positive-scoring molecules 3-fold increase, read-out: AK-based Prestwick Library Screening Results, S. aureus (fold increase in extracellular AK activity)) of 0.6 and a fold induction at 50 µM (K. pneumoniae; planktonic, cutoff for positive-scoring molecules 3-fold increase, read-out: AK-based Prestwick Library Screening Results, K. pneumoniae (fold increase in extracellular AK activity)) of 0.7. The fold induction at 50 µM ([2]; planktonic, cutoff for positive-scoring molecules 3-fold increase, read-out: AK-based Prestwick Library Screening Results, A. baumannii (fold increase in extracellular AK activity)) was 0.7, the fold induction at 50 µM (P. aeruginosa; planktonic, cutoff for positive-scoring molecules 3-fold increase, read-out: AK-based Prestwick Library Screening Results, P. aeruginosa (fold increase in extracellular AK activity)) was 0.8 and the fold induction at 50 µM (E. cloacae; planktonic, cutoff for positive-scoring molecules 3-fold increase, read-out: AK-based Prestwick Library Screening Results, E. cloacae (fold increase in extracellular AK activity)) was 1. The fold induction at 50 µM (E. coli; planktonic, cutoff for positive-scoring molecules 3-fold increase, read-out: AK-based Prestwick Library Screening Results, E. coli (fold increase in extracellular AK activity)) was 0.7.

Work on `Cc1cccc(Nc2ccccc2C(=O)O)c1C` [Mefenamic acid] yielded a fold induction at 50 µM (E. faecium; [4]) of 0.9, a fold induction at 50 µM [1, 5] of 0.7 and a fold induction at 50 µM (K. pneumoniae; [6]) of 0.8. The fold induction at 50 µM [2, 7] was 1.2, the fold induction at 50 µM (P. aeruginosa; [8]) was 0.9 and the fold induction at 50 µM (E. cloacae; [9]) was 1.6. The fold induction at 50 µM (E. coli; [10]) was 0.9.

In the case of `CCN(CC)CCNC(=O)COc1ccc(OC)cc1` [Mefexamide hydrochloride], the fold induction at 50 µM (E. faecium; [4]) is reported as 1, the fold induction at 50 µM [1, 5] is reported as 0.9 and the fold induction at 50 µM (K. pneumoniae; [6]) is reported as 0.9. The fold induction at 50 µM [2, 7] was 1, the fold induction at 50 µM (P. aeruginosa; [8]) was 1.1 and the fold induction at 50 µM (E. cloacae; [9]) was 1.3. For the same compound, the fold induction at 50 µM (E. coli; [10]) was 1.2.

`OC(c1cc(C(F)(F)F)nc2c(C(F)(F)F)cccc12)C1CCCCN1` (centres unmarked) [Mefloquine hydrochloride] showed a fold induction at 50 µM (E. faecium; 384-well format, cutoff for positive-scoring molecules 3-fold increase, read-out: AK-based Prestwick Library Screening Results, E. faecium (increase in extracellular AK activity)) of 1, a fold induction at 50 µM ([1]; 384-well format, cutoff for positive-scoring molecules 3-fold increase, read-out: AK-based Prestwick Library Screening Results, S. aureus (increase in extracellular AK activity)) of 3.2 and a fold induction at 50 µM (K. pneumoniae; 384-well format, cutoff for positive-scoring molecules 3-fold increase, read-out: AK-based Prestwick Library Screening Results, K. pneumoniae (increase in extracellular AK activity)) of 1.3. The fold induction at 50 µM ([2]; 384-well format, cutoff for positive-scoring molecules 3-fold increase, read-out: AK-based Prestwick Library Screening Results, A. baumannii (increase in extracellular AK activity)) was 2.6, the fold induction at 50 µM (P. aeruginosa; 384-well format, cutoff for positive-scoring molecules 3-fold increase, read-out: AK-based Prestwick Library Screening Results, P. aeruginosa (increase in extracellular AK activity)) was 1.1 and the fold induction at 50 µM (E. cloacae; 384-well format, cutoff for positive-scoring molecules 3-fold increase, read-out: AK-based Prestwick Library Screening Results, E. cloacae (increase in extracellular AK activity)) was 1.2. It also gave a fold induction at 50 µM (E. coli; 384-well format, cutoff for positive-scoring molecules 3-fold increase, read-out: AK-based Prestwick Library Screening Results, E. coli (increase in extracellular AK activity)) of 1.3.
